Read-outs that look alike come from different tables or passages of the source.
Experiments:
potato late blight = assay: microbe, parasite or virus in culture; type: cell-based
Bipolaria maydis = assay: organism not typed; type: cell-based; settings: 50 mg/kg
[1] = test system: tobacco mosaic virus (TMV); assay: Anti-TMV in vivo therapeutic effect; set-up: species or system tobacco mosaic virus (host Nicotiana tabacum L.cv.Xanthi NN)
Rhizoctonia cereali = assay: Fungicidal (bactericidal) activity in vitro, PDA colony diameter; type: cell-based; settings: 50 mg/kg
Alternaria solani = assay: as above; type: cell-based; settings: 50 mg/kg
Rhizoctonia solani = assay: as above; type: cell-based; settings: 50 mg/kg
armyworms = type: in vivo; settings: concentration 600 mg/kg
corn borers = settings: concentration 600 mg/kg
[2] = test system: Colletotrichum orbiculare; assay: Fungicidal (bactericidal) activity in vitro, PDA colony diameter; type: cell-based; settings: 50 mg/kg
Fusarium graminearumt = assay: microbe, parasite or virus in culture; type: cell-based; settings: 50 mg/kg
Botrytis cinerea = assay: Fungicidal (bactericidal) activity in vitro, PDA colony diameter; type: cell-based; settings: 50 mg/kg
Macrophoma kawatsukai = assay: as above; type: cell-based; settings: 50 mg/kg
cotton bollworms = assay: whole plant or invertebrate; settings: concentration 600 mg/kg
Protocol: Experimental method of cotton bollworms: feed and drug mixing method: measure 3 mL of prepared solution and add it to about 27 g of newly prepared feed, thereby obtaining needed concentration through dilution by 10 times.

[3] = test system: tobacco mosaic virus (TMV); assay: Anti-TMV in vivo inactivation; set-up: species or system tobacco mosaic virus (host Nicotiana tabacum L.cv.Xanthi NN)
[4] = test system: tobacco mosaic virus (TMV); assay: Anti-TMV in vivo protective effect; set-up: species or system tobacco mosaic virus (host Nicotiana tabacum L.cv.Xanthi NN)
Fusarium fujikuroi = assay: Fungicidal (bactericidal) activity in vitro, PDA colony diameter; type: cell-based
cucumber fusarium wilt = assay: as above; type: cell-based
Cercospora arachidicola = assay: as above; type: cell-based
Sclerotinia scleotiorum = assay: as above; type: cell-based; settings: 50 mg/kg
[5] = test system: tobacco mosaic virus (TMV); assay: Anti-TMV in vitro effect (half-leaf soaking); type: cell-based, tobacco mosaic virus (host Nicotiana tabacum L.cv.Xanthi NN)
mosquito larvae = assay: whole plant or invertebrate; settings: concentration 10 mg/kg, 24 h
Summary of the method: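 Compound dissolved in acetone (or other solvent) to a 1000 ppm stock and diluted in water to 5 ppm. Ten Culex pipiens pallens larvae at the start of the fourth instar, laboratory-reared, added per beaker; solvent-only aqueous control.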

Phytophthora capsici = assay: Fungicidal (bactericidal) activity in vitro, PDA colony diameter; type: cell-based; settings: 50 mg/kg

SMILES | Bactericidal activity (%) Bipolaria maydis (Bipolaria maydis) | Relative inhibition rate (%) In vivo therapy ([1]; treatment dose 100 μg/mL) | Relative inhibition rate (%) In vivo therapy ([1]; treatment dose 500 μg/mL) | Bactericidal activity (%) Rhizoctonia cereali (Rhizoctonia cereali) | Bactericidal activity (%) Alternaria solani (Alternaria solani) | Bactericidal activity (%) Rhizoctonia solani (Rhizoctonia solani) | Armyworm Mortality (%) (armyworms) | Corn borer Mortality (%) (corn borers) | Bactericidal activity (%) Colletotrichum orbiculare [2] | Bactericidal activity (%) Fusarium graminearumt (Fusarium graminearumt) | Bactericidal activity (%) Botrytis cinerea (Botrytis cinerea) | Bactericidal activity (%) Macrophoma kawatsukai (Macrophoma kawatsukai) | Cotton bollworm Mortality (%) (cotton bollworms) | Relative inhibition rate (%) In vivo inactivation ([3]; treatment dose 100 μg/mL) | Relative inhibition rate (%) In vivo inactivation ([3]; treatment dose 500 μg/mL) | Relative inhibition rate (%) In vivo protection ([4]; treatment dose 100 μg/mL) | Relative inhibition rate (%) In vivo protection ([4]; treatment dose 500 μg/mL) | Bactericidal activity (%) Sclerotinia scleotiorum (Sclerotinia scleotiorum) | Relative inhibition rate (%) In vitro activity ([5]; treatment dose 100 μg/mL) | Relative inhibition rate (%) In vitro activity ([5]; treatment dose 500 μg/mL) | also measured
O=C(O)/C=C/c1cc2c([nH]c3ccccc32)c(-c2cccs2)n1 [Ia-15, (E)-3-(1-(thiophene-2)-pyridino [3,4-b]indol-3)-acrylic acid] | 73.7% | 10% | 36.2% | 81.3% | 22.2% | 17.9% | 15% | 5% | 66.7% | 78.6% | 68.2% | 58.8% | 15% | 13.5% | 39.6% | 10.2% | 35.1% | 76.0% | 0% | 40.2% | Bactericidal activity (%) potato late blight (potato late blight): 55.0%; Bactericidal activity (%) Fusarium fujikuroi (Fusarium fujikuroi; 50 mg/kg): 64.3%; Bactericidal activity (%) Cucumber fusarium wilt (cucumber fusarium wilt; 50 mg/kg): 33.3%; Bactericidal activity (%) Cercospora arachidicola (Cercospora arachidicola; 50 mg/kg): 21.4%; Mosquito larvae Mortality (%) (mosquito larvae): 35%; Bactericidal activity (%) Phytophthora capsici (Phytophthora capsici): 66.7%
CC(=O)Oc1ccc2c(c1)[nH]c1c(C)nccc12 [Ia-7, Acetate (1-methylpyridino [3,4-b]indol-7)-ester] | 21.1% | 0% | 24.1% | 62.5% | 33.3% | 0.0% | 35% | 25% | 33.3% | 35.7% | 36.4% | 5.9% | 30% | 0% | 20.3% | 0% | 27.2% | 76.0% | 0% | 30% | Bactericidal activity (%) potato late blight (potato late blight; 50 mg/kg): 20.0%; Bactericidal activity (%) Fusarium fujikuroi (Fusarium fujikuroi): 35.7%; Bactericidal activity (%) Cucumber fusarium wilt (cucumber fusarium wilt; 50 mg/kg): 14.3%; Bactericidal activity (%) Cercospora arachidicola (Cercospora arachidicola): 35.7%; Mosquito larvae Mortality (%) (mosquito larvae): 65%; Bactericidal activity (%) Phytophthora capsici (Phytophthora capsici): 18.2%
COc1ccccc1C=NNC(=O)[C@@H]1Cc2c([nH]c3ccccc23)[C@H](C)N1 [Ic-10, (1S, 3S)—N′-(2-methoxybenzylidene)-1-methyl-2,3,4,9-tetrahydropyridino [3,4-b] indol-3-formylhydrazine] | 56.0% | 10.9% | 36.4% | 78.4% | 45.0% | 32.9% | 25% | 30% | 40.7% | 72.4% | 77.3% | 88.9% | 30% | 0% | 43.2% | 0% | 34.8% | 64.7% | 0% | 38.5% | Bactericidal activity (%) potato late blight (potato late blight): 44.0%; Bactericidal activity (%) Fusarium fujikuroi (Fusarium fujikuroi; 50 mg/kg): 21.4%; Bactericidal activity (%) Cucumber fusarium wilt (cucumber fusarium wilt; 50 mg/kg): 26.9%; Bactericidal activity (%) Cercospora arachidicola (Cercospora arachidicola; 50 mg/kg): 23.5%; Mosquito larvae Mortality (%) (mosquito larvae): 50%; Bactericidal activity (%) Phytophthora capsici (Phytophthora capsici): 63.2%
Cc1nnsc1C(=O)NNC(=O)[C@@H]1Cc2c([nH]c3ccccc23)[C@H](C)N1 [Id-2, 4-methyl-N′-((1S, 3S)-1-methyl-2,3,4,9-tetrahydropyridino [3,4-b]indol-3-triformyl)-1,2,3-thiadiazole-5-formylhydrazine] | 28.0% | 19.1% | 48.8% | 45.9% | 14.3% | 0.0% | 40% | 40% | 24.0% | 53.8% | 61.1% | 39.4% | 40% | 9.8% | 42.9% | 16% | 51.3% | 19.2% | 13.5% | 41.2% | Bactericidal activity (%) potato late blight (potato late blight): 30.4%; Bactericidal activity (%) Fusarium fujikuroi (Fusarium fujikuroi; 50 mg/kg): 29.4%; Bactericidal activity (%) Cucumber fusarium wilt (cucumber fusarium wilt; 50 mg/kg): 4.5%; Bactericidal activity (%) Cercospora arachidicola (Cercospora arachidicola; 50 mg/kg): 18.2%; Mosquito larvae Mortality (%) (mosquito larvae): 80%; Bactericidal activity (%) Phytophthora capsici (Phytophthora capsici): 6.1%
C[C@@H]1N[C@H](C(=O)NN=Cc2ccco2)Cc2c1[nH]c1ccccc21 [Ic-18, (1S, 3S)—N′-(furan-2-methylene)-1-methyl-2,3,4,9-tetrahydropyridino [3,4-b] indol-3-formylhydrazine] | 20.0% | 9.3% | 44.2% | 68.6% | 35.0% | 32.9% | 10% | 15% | 33.3% | 6.9% | 81.8% | 69.4% | 20% | 18.2% | 54.6% | 11.5% | 47.5% | 64.7% | 15.4% | 48.8% | Bactericidal activity (%) potato late blight (potato late blight): 36.0%; Bactericidal activity (%) Fusarium fujikuroi (Fusarium fujikuroi; 50 mg/kg): 28.6%; Bactericidal activity (%) Cucumber fusarium wilt (cucumber fusarium wilt): 11.5%; Bactericidal activity (%) Cercospora arachidicola (Cercospora arachidicola; 50 mg/kg): 52.9%; Mosquito larvae Mortality (%) (mosquito larvae): 25%; Bactericidal activity (%) Phytophthora capsici (Phytophthora capsici): 39.5%

Reference: patent publication US10208033B2, “β-carboline, dihydro-β-carboline and tetrahydro-β-carboline alkaloid derivatives and preparation methods same and use in aspects of preventing and treating plant viruses, fungicides and insecticides” (NANKAI UNIVERSITY, priority 2013, dated 2019)
